# Laboratory results published in patent publication EP1247803A2, “Indolinone compounds suitable for modulation of protein kinases” (Sugen, Inc., priority 1996, dated 1998).
# Biological target: T1, EGFR (Homo sapiens, UniProt P00533)
# T1 construct: Add 7 ug A431 cell lysate per well (EGFR source); endogenous in cells; host or cells: A431
# Experiment: EGFR ELISA assay (in vitro kinase activity, EGFR captured from A431 cell lysate)
# Format: biochemical
# Design: concentration or dose not given beside the values
# How it was run: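 EGFR from A431 lysate was captured on plates coated with anti-EGFR antibody. Compounds were added 30 min before a 5 min phosphorylation with 3 µM ATP/5 mM MnCl2, which was stopped with 20 mM EDTA. Phosphotyrosine was detected with rabbit anti-phosphotyrosine, then a peroxidase-conjugated secondary and ABTS/H2O2, read at 410 nm.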
# T1 sequence (P00533 25-1210): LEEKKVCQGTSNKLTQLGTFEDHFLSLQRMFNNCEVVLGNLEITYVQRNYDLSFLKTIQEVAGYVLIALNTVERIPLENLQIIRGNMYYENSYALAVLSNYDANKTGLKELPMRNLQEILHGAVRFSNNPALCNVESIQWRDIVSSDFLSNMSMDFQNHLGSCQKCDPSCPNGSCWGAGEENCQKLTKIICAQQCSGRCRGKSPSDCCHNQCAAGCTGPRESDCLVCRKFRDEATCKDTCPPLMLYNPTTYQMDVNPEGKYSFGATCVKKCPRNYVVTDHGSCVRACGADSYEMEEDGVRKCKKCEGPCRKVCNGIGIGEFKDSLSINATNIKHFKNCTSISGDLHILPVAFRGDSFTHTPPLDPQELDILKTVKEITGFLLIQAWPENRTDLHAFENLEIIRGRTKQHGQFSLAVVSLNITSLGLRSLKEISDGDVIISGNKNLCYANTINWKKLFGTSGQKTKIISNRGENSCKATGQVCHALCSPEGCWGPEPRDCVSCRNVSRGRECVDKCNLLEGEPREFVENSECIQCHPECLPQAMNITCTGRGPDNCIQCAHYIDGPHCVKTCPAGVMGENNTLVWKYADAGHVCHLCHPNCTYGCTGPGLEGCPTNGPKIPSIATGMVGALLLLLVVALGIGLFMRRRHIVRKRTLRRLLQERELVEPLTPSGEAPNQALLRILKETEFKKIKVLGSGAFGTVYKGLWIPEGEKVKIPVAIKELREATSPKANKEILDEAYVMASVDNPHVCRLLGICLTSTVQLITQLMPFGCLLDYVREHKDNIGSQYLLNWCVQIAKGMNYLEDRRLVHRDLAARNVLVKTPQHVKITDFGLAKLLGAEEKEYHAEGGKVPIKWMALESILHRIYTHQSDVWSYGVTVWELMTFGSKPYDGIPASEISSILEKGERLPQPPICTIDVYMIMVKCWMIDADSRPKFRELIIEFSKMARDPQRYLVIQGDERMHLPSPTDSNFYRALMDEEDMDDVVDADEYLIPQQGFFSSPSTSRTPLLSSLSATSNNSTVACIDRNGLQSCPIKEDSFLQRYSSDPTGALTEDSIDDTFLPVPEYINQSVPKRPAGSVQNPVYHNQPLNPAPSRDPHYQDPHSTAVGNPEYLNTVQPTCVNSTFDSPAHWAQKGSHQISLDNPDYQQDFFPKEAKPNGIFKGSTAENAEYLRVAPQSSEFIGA
row,Compound,Biochem EGFR %Inhibition [%]
1,CSc1ccc(C=C2C(=O)Nc3ccc(Br)c(C)c32)s1 [10720/C07],-25.4
2,Cc1cc(O)cc(O)c1C=C1C(=O)Nc2ccc(Br)c(C)c21 [10720/C08],-1.1
3,CCOc1cc(C=C2C(=O)Nc3ccc(Br)c(C)c32)ccc1O [10720/C09],44.7
4,COc1ccc(O)c(C=C2C(=O)Nc3ccc(Br)c(C)c32)c1 [10720/C10],2.0
5,Cc1c(Br)ccc2c1C(=Cc1ncc[nH]1)C(=O)N2 [10720/C11],-21.9
6,CNS(=O)(=O)c1ccc2c(c1)C(=Cc1c(F)cc(F)cc1F)C(=O)N2 [10720/D02],11.1
7,CNS(=O)(=O)c1ccc2c(c1)C(=Cc1ccc(O)cc1OC)C(=O)N2 [10720/D03],0.9
